Patent publication US9127040B2, “Regulation of sodium channels by PLUNC proteins” (The University of North Carolina at Chapel Hill, priority 2011, dated 2015)
Ends that are not written are not given here.

Molecular target: T1, βENaC (Homo sapiens, UniProt P51168)
T1 construct: expressed in transfected cells; host or cells: HEK293T cells (lysate)
T1 sequence (P51168 1-640): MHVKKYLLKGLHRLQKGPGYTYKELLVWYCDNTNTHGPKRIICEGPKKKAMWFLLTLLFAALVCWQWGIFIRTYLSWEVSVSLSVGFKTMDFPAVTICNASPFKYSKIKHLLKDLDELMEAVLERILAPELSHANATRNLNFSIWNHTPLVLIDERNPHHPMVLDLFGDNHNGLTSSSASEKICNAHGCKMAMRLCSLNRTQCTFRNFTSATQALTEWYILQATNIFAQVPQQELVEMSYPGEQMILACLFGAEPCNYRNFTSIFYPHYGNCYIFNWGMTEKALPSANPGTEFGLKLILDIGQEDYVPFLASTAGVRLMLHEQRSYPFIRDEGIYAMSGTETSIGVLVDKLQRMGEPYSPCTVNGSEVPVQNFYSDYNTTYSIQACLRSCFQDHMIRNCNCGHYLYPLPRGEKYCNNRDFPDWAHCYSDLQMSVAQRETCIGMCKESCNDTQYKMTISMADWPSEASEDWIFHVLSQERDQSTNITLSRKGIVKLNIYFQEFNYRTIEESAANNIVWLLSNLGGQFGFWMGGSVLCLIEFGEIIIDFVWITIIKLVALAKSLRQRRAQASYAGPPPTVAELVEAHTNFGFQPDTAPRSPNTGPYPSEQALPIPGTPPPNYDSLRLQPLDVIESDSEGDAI
Assay: Biotinylated peptide pull-down of ENaC subunits from HEK293T cells
Format: binding
Experimental: HEK293T cells were transfected with double-tagged human ENaC subunits with HA and V5 epitopes at the N- and C-termini, respectively, in combination with wild-type untagged subunit cDNA. When all three ENaC subunits were expressed, 0.5 μg of each subunit were transfected per well. When expressed individually, 0.75 μg of the subunit were transfected per well. The transfected cells were lysed 24 h later using NP-40 buffer with 1× complete EDTA-free protease inhibitor (Roche, Basel, Switzerland). The lysate was centrifuged at 16,300×g for 15 minutes at 4° C. and the supernatant collected. Protein concentration was determined using the BCA assay and 500 μg of protein plus 0.25 mg peptide and 100 μL of neutravidin were added to a spin column and rotated end-over-end at 4° C. for 24 h (all ThermoFisher Scientific, Rockford, Ill., USA). Flow-through was collected by centrifugation at 1000×g for 30 s. The beads were then washed 5× with NP-40 buffer. Bound protein was eluted by boiling at 95° C. for 10 minutes in 75 μL of 2×LDS NuPAGE sample buffer with 1× sample reducing agent followed by centrifugation at 16,300×g for 2 minutes. Samples were resolved on 4-12% Bis-Tris gels in MES and transferred to a nitrocellulose membrane using iBlot, setting P3 for 8 min (Invitrogen, Carlsbad, Calif., USA). The membrane was probed using 1:1000 anti-V5 antibody (Invitrogen, Carlsbad, Calif., USA) overnight at 4° C. in 3% fish gelatin in TBS-T. The blot was then incubated for 1 h at room temperature with an ECL sheep anti-mouse IgG secondary antibody and detected by ECL reagent (ThermoFisher Scientific, Waltham, Mass., USA) or by incubation with a goat anti-mouse IRDye secondary antibody and analyzed by an Odyssey infrared imaging system (LI-COR Biosciences, Lincoln, Nebr., USA).
Peptide pull-down assays were performed as described above. Samples were eluted by the addition of 100 μL of 0.1 M sodium citrate, pH 5.5, 0.1% SDS to the beads and incubating at 100° C. for 2 minutes, followed by centrifugation at 16,300×g for 2 minutes. […]

Question: For GGLPVPLDQTLPLNVNPA [S18], which “glycosylation dependence of β-ENaC interaction” value (EndoH treated elution, tunicamycin treated cells) is on record?
Answer: The value was “glycosylation dependent”.

Question: And the “binding to βENaC (pull-down)” value (subunits individually expressed, biotinylated peptide)?
Answer: Its value is “binds exclusively to βENaC”.
